A short description of data set [1]: Critical micellar concentration by surface tension. Particulars: […] NaCl water solution. In kind it is physicochemical. On the procedure:
The critical micellar concentration (CMC) was determined by surface tension (ST) measurements using a maximum bubble-pressure method which give surface tension values […] by potential impurities like static methods are. The tensiometer was a […] Research Corp., Milwaukee, Wis.) equipped with two glass probes of 0.5 and 4.0 mm diameters connected to a source of nitrogen. […] The surface tension values were plotted against the logarithm of the bile salt concentration; the regression lines corresponding to the two parts of the curve (monomeric and micellar phases) were calculated using the method of least squares, and the intersection of the lines was taken as the CMC value. From the ST vs concentration curves the value of the surface tension at the CMC (equilibrium between monomers and multimers species) was also calculated giving information about the detergency power which is related to the size of the micelles with associate surface tension lowering capacity. The CMC was evaluated by surface tension measurements in non equilibrium conditions i.e. in conditions that impurities slightly affect the surface tension results (FIG. 10).

Data set [2] in a line: Octanol/water partition coefficient (shake-flask). In kind it is physicochemical. Particulars: pH 8.
The next data set addresses T1, CAR (Homo sapiens, UniProt Q14994).
T1 construct: purchased Invitrogen
T1 sequence (Q14994 109-352 limits assumed): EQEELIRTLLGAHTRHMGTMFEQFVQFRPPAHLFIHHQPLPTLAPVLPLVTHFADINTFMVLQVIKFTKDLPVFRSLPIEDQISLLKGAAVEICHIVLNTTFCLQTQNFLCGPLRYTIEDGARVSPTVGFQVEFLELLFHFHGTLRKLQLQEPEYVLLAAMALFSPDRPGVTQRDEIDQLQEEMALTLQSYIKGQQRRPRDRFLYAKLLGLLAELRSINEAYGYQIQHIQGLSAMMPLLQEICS
Kind of data set: CAR coactivator recruitment (Lanthascreen). In kind it is biochemical. Particulars: read-out: CAR Activation EC50. On the procedure: CAR: Coactivator Recruitment (Lanthascreen)
Lanthascreen assay (Invitrogen) was used for nulear receptor selectivity assay. The kit uses a terbium-labeled anti-GST antibody, a fluorescein-labeled coactivator peptide, and a NR ligand-binding domain that is tagged with glutathione-S-transferase (GST) in a homogenous mix-and-read assay format. […] Following 1 hour incubation in the dark, TR-FRET measurements were made in the Envision. […] The data was analyzed using GraphPad Prism using the sigmoidal curve equation with variable slope to obtain EC50 values.
A general note: In TR-FRET formats the signal depends on donor and acceptor labels being close together.

The next data set has as its system ileal explants. As to the kind of experiment: GLP-1 release ex vivo from ileal explants. Also noted: species or system mouse. Particulars: 1 h exposure, explants from 18-weeks HF-fed TGR5-Tg male mice. On the procedure: . Pellicciari et al., 2007, J. Med. Chem. 50, 4265-4268). cAMP production was performed as described (Sato et al., 2008, J. Med. Chem. 51, 1831; Watanabe et al., 2006, Nature 439, 484). […] ATP/ADP ratio and GLP-1 release were measured according to the manufacturers' instructions (Biovision and Millipore, respectively). Primary brown adipocytes were prepared as previously described (Watanabe et al., 2006, Nature 439, 484), and ileal explants were prepared according to an established method (Cima et al., 2004, J. Exp. Med. 200, 1635-1646).
Plasma parameters and hepatic and fecal lipid content were measured as described (Mataki et al., 2007, Mol. Cell. Biol. 27, 8330-8339). Hematoxylin and eosin (H&E), Sirius red, and oil red 0 staining were performed as described (Mark al., 2007, Curr. Protoc. Mol. Biol. Chapter 29, Unit 29B, 24), and micrographs were taken on wide-field microscopes (Leica) with a CCD camera. For pancreatic sections, islets were sized and counted from four HE-stained alternated sections spaced of […] using ImageJ software (five animals per group). […] Insulin was extracted after O/N incubation at −20° C. in acid ethanol and measured by ELISA on PBS-diluted samples according to the manufacturer's instructions (Mercodia). GLP-1 release was measured in vitro, ex vivo, and in vivo according to methods known in the art.

A further data set has as its system NCI-H716 cells. Kind of data set: NCI-H716 cell experiments (ATP, intracellular calcium, GLP-1 release). In kind it is cell-based, human.
The nature of data set [3]: Biliary secretion and hepatic metabolism in bile fistula rat after femoral infusion (Example 22). In kind it is in vivo. Particulars: after iv administration.
The nature of a further data set: in vitro. The note with it: human, HepG2 cells.
In another data set the target is PXR (Homo sapiens, UniProt O75469). As to the kind of experiment: PXR ligands competition assay (binding assay).
Chain of PXR (O75469 whole entry, species assumed): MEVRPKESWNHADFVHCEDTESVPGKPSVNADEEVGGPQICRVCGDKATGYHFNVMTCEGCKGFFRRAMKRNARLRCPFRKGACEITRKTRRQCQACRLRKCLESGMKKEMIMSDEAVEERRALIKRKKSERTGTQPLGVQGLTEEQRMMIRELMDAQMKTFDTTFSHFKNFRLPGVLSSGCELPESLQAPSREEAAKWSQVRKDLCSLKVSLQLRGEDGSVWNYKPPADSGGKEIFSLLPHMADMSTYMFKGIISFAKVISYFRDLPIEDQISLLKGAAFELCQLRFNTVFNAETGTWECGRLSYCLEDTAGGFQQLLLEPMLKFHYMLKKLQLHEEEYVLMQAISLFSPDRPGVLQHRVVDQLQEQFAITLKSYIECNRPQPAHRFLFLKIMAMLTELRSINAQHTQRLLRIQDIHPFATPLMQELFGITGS

Results on one compound are retold here after patent publication US8114862B2, “TGR5 modulators and methods of use thereof” (Intercept Pharmaceuticals, Inc., priority 2008, dated 2012).

Values joined by “and” are separate entries in the source; they are usually repeats but may differ in a detail not shown here. Identical values can stand only once.

By EC50 is commonly meant the concentration at which the effect is half-maximal. In general, IC50 refers to the concentration needed to halve the response being measured. Read a low IC50 as inhibition by little substance. For the compound `CC[C@H]1[C@@H](O)[C@@H]2[C@H](C[C@H](O)[C@]3(C)[C@@H]([C@H](C)C[C@H](C)C(=O)O)CC[C@@H]23)[C@@]2(C)CC[C@@H](O)C[C@@H]12` [Ih3e, 6α-ethyl-(23S)-methyl-3α,7α,12α trihydroxy-5β-cholan-24-oic acid], in data set [1], the “CMC […] Na+” value is 1.4 mM and the “STCMC (surface tension at CMC)” value worked out at 50.1 Dyne/cm. The “LogPA- (1-octanol-water partition coefficient, ionized species)” value in data set [2] was 1.4 and 1.44. Moreover, at CAR, the EC50 was more than 250 µM. The “GLP-1 release ex vivo” value with ileal explants was “dramatically and dose-dependently induces the release of GLP-1 ex vivo”. Further, in the data set with NCI-H716 cells (NCI-H716), the ATP production entry is recorded as “increased ATP production in a cAMP-dependent manner” and the calcium influx result is reported as “robustly increased calcium influx”. Also, the GLP-1 release result with NCI-H716 cells (NCI-H716, with glucose) was “rise in GLP-1 release”. In addition, in data set [3], the biliary secretion result is “efficient”. In addition, the half-maximal effective concentration (EC50) at 4 h in the data set “in vitro” is more than 1000 µM. On PXR, the IC50 stood at 110 µM.
